From PubChem BioAssay (NCI)
≈ marks a conversion by molar mass, not a printed value. Where “and” joins values, the source holds several entries; their conditions need not be identical. Equal entries are not always repeated.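 Step 1: Grow cells in 96-well plates. Step 2: Expose to compound for 48 hours at 5 concentrations. Step 3: Interpolate endpoints linearly; if unreached, use highest concentration. Here, GI50 denotes the concentration required for 50% inhibition of growth. The concentration for full growth arrest is given as TGI.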 Calls of active or inactive are those of the source. Cut-off read from the data, not from the text of the source: active = GI50 below about 0.43 µM; inactive = the rest.

Experiments:
Assay in all cases: NCI-60 cell line screen, 48 h
DLD-1 colon = tested on: DLD-1 colon
KM20L2 colon = tested on: KM20L2 colon
SNB-78 CNS = tested on: SNB-78 CNS
M19-MEL melanoma = tested on: M19-MEL melanoma
LXFL 529 NSCLC = tested on: LXFL 529 NSCLC
XF 498 CNS = tested on: XF 498 CNS
MCF7 breast = tested on: MCF7 breast
BT-549 breast = tested on: BT-549 breast
PC-3 prostate = tested on: PC-3 prostate

Structure (SMILES)	GI50 (MCF7 breast) [µM]	TGI (MCF7 breast) [µM]	GI50 (BT-549 breast)	TGI (BT-549 breast) [µM]	GI50 (PC-3 prostate) [µM]	TGI (PC-3 prostate) [µM]	also measured
CC(=O)CCCCCCCCCCCC[C@@H]1CC[C@H](C)[C@H](O)N1	–	–	–	–	–	–	TGI (DLD-1 colon): > 100 µM; TGI (KM20L2 colon): > 100 µM; TGI (SNB-78 CNS): > 100 µM; TGI (M19-MEL melanoma): > 100 µM; TGI (LXFL 529 NSCLC): > 100 µM; TGI (XF 498 CNS): > 100 µM
Clc1ccc(-n2nnc(C3=NCCN3)c2-c2ccccc2)cc1	–	–	–	–	–	–	TGI (DLD-1 colon): > 100 µM; TGI (KM20L2 colon): > 100 µM; TGI (SNB-78 CNS): > 100 µM; TGI (M19-MEL melanoma): > 100 µM; TGI (LXFL 529 NSCLC): > 100 µM; TGI (XF 498 CNS): > 100 µM
O=C1C=C[C@@]23CC1C(O)C[C@H]2C=Cc1ccccc13 (some centres undefined)	–	–	–	–	–	–	TGI (DLD-1 colon): > 100 µM; TGI (KM20L2 colon): > 100 µM; TGI (M19-MEL melanoma): > 100 µM; TGI (LXFL 529 NSCLC): > 100 µM; TGI (XF 498 CNS): > 100 µM
COCCn1cc(-c2csc(-c3c[nH]c4ccccc34)n2)c2cccnc21	1.74	> 100	4.45 µM	> 100	6.81	> 100	–
N#Cc1c(C(=O)c2ccccc2)cnn1-c1ccccc1	> 25	> 25	> 25 µM	> 25	> 25	> 25	–
Cc1ccc(C(CN(C)C)C(=O)c2ccccc2)cc1 (centres undefined)	–	–	1.7 µM	3.75	1.84	4.36	–
CC12CCC3C(CC=C4CC(O)CCC43C)C1C/C(=C\N1CCCC1)C2=O (centres undefined)	> 100	> 100	41 µM	> 100	55	> 100	–
CC(=O)O[C@H]1C(=O)[C@@]2(C)C(C(OC(=O)c3ccccc3)[C@]3(O)CC(OC(=O)[C@H](OC(=O)CCC(=O)O)C(NC(=O)c4ccccc4)c4ccccc4)C(C)=C1C3(C)C)C1(OC(C)=O)COC1C[C@@H]2OC(=O)CCC(=O)O (some centres undefined)	–	> 100	–	–	–	> 100	–
C[C@]12CCC3[C@@H](C[C@@H]4SC(Nc5ccccc5)=N[C@@]45CC(=O)CC[C@]35C)[C@@H]1CCC2=O (some centres undefined)	3.58	32.8	4.58 µM	38.9	5.52	63.7	–
[Cl][Bi]([O]c1ccccn1)[O]c1ccccn1	–	–	–	–	–	–	GI50 (DLD-1 colon): > 100 µM; TGI (DLD-1 colon): > 100 µM; GI50 (KM20L2 colon): > 100 µM; TGI (KM20L2 colon): > 100 µM; GI50 (XF 498 CNS): > 100 µM; TGI (XF 498 CNS): > 100 µM
COc1c(O)c2c(c3cc(C(=O)N4CCc5c4c(O)c(OC)c4[nH]c(C(=O)N6CC7CC78C6=CC(=O)c6[nH]cc(C)c68)cc54)[nH]c13)CCN2C(N)=O (centres undefined)	–	0.397	–	5.01	–	10	GI50 (DLD-1 colon): 0.00341 µg/mL; TGI (KM20L2 colon): 0.0181 µM; outcome (KM20L2 colon): inactive; GI50 (SNB-78 CNS): 0.0117 µg/mL (≈ 0.0166 µM); TGI (SNB-78 CNS): 0.0534 µg/mL; GI50 (M19-MEL melanoma): 0.0165 µg/mL (≈ 0.0235 µM); TGI (M19-MEL melanoma): 14.8 nM and 0.041 µg/mL; TGI (LXFL 529 NSCLC): 0.0329 µM; outcome (LXFL 529 NSCLC): inactive
COc1ccccc1-[n+]1cc(-c2ccc(-c3ccccc3)cc2)n2c1CCCCC2	0.229	11.2	0.15 µM	1.25	0.228	8.95	–
C[C@@H]1C=C(CCCCCCCCCCC[C@H](O)[C@@H]2CCC(=O)O2)C(=O)O1	39.2	> 100	47.4 µM	> 100	30.5	92.9	–
CC(=O)Nc1ccc(C(=O)N2N=C(C)/C(=C/c3ccccc3O)C2=O)cc1	–	–	–	–	–	–	TGI (DLD-1 colon): > 100 µM; TGI (SNB-78 CNS): > 100 µM; TGI (M19-MEL melanoma): > 100 µM; TGI (XF 498 CNS): > 100 µM
CCCC1c2c(ccc3ccccc23)Oc2ccc3ccccc3c21	–	35.6	–	> 100	–	> 100	–
Cc1ccc2c(c1)nc(C(=O)c1ccco1)c(C(F)(F)F)[n+]2[O-]	> 100	> 100	78.5 µM	> 100	50.2	> 100	–

Structure (SMILES)	GI50 (MCF7 breast) [µM]	TGI (MCF7 breast) [µM]	GI50 (BT-549 breast)	TGI (BT-549 breast) [µM]	GI50 (PC-3 prostate) [µM]	TGI (PC-3 prostate) [µM]	also measured
c1ccc(Cc2nc3ccc(Nc4ncnc5ccccc45)cc3[nH]2)cc1	> 25	> 25	> 25 µM	> 25	> 25	> 25	–
O=C(O)c1ccc2c(c1)Cc1cc([N+](=O)[O-])ccc1-2	–	> 100	–	> 100	–	–	–
CC(=O)Nc1ccc(/C=C/[N+](=O)[O-])cc1	–	9.72	–	12.4	–	16.7	–
N[C@@H](Cc1c[nH]c2ccccc12)C(=O)NC1CCN(C(=O)c2c[nH]c3ccccc23)CC1	> 100	> 100	> 100 µM	> 100	> 100	> 100	–
Cc1c(C#N)cccc1-c1cc(-c2cn(Cc3cccc(C(C)(C)O)n3)nn2)nc(N)n1	22.4	> 100	14.9 µM	69.1	17.7	87.5	–
Cc1c(N=Nc2ccc([N+](=O)[O-])cc2)nc2scc(-c3ccccc3)n12	–	> 100	–	> 100	–	> 100	–
O=C(O)c1cc2ccccc2c(O)c1O	–	28.4	–	30	–	37	–
CCCCn1c2cc(OCc3cn(-c4ccc(Cl)cc4)nn3)ccc2c2ccnc(C)c21	7.14	> 33.3	–	–	7.85	> 33.3	–
Oc1ccc(/C=N\Nc2ccccn2)c(O)c1	1.76	11	4.87 µM	> 100	4.56	> 100	–
O=c1cc(C(F)(F)F)c2cc3c(cc2o1)NCCC3	–	> 100	–	> 100	–	> 100	–
C(=N\Nc1ccccn1)/c1ccccn1	0.401	> 100	1.62 µM	> 100	–	> 100	–
CC(O)/C=C/C(CCC(C)CO)C(C)C (centres undefined)	–	–	–	–	–	–	TGI (DLD-1 colon): > 100 µM; TGI (SNB-78 CNS): > 100 µM; TGI (M19-MEL melanoma): > 100 µM; TGI (LXFL 529 NSCLC): > 100 µM; TGI (XF 498 CNS): > 100 µM
O=C1NC(=S)NC(=O)C1=Cc1cc2c(cc1[N+](=O)[O-])OCO2	–	–	–	–	–	–	TGI (DLD-1 colon): > 100 µM; TGI (KM20L2 colon): > 100 µM; TGI (SNB-78 CNS): > 100 µM; TGI (M19-MEL melanoma): > 100 µM
O=C(/C=C/c1cccnc1)NCCCCC1CCN(C(=O)c2ccccc2)CC1	–	> 100	6.11 µM and 19.6 µM	> 100	< 0.01	> 100	–
CCCC[C@H]1C(=O)O[C@H](C)[C@H](NC(=O)c2cccc(NC=O)c2O)C(=O)O[C@@H](C)[C@@H]1OC(=O)CC(C)C	–	25.8	–	36	–	32.9	–
